Measurements: US20260123631A1, “NATURAL PORPHIN SALT AND USE THEREOF AS PLANT GROWTH REGULATOR AND PLANT IMMUNITY INDUCER” (NANJING BOSTEC BIOLOGICAL ENGINEERING CO., LTD, priority 2022, published 2026)

What was measured:
tomato = experiment: Spraying on tomato to increase a yield; type: in vivo, tomato (Jinfan 1615); details: 0.05 ppm sprayed twice; for Yield increase rate: versus control
Method: During cultivation, flat planting, plastic mulching, seedling transplanting, and pressurized drip irrigation were adopted. On April 29, seedlings were transplanted at 2,600 seedlings/mu. An area of 20 mu was adopted for each of control and treatment groups. Each treatment region was sprayed with a sodium iron chlorophyllin solution at a concentration of 0.05 ppm twice in an early flowering stage (May 22, 2021) and a fruit setting stage (Jun. 5, 2021), respectively.
The harvesting was conducted on August 3. During the harvesting, 5 plants were continuously and randomly selected from each treatment for sampling statistics.

mung bean seedlings = experiment: Inducing adventitious roots from hypocotyls of mung bean; type: in vivo; details: day 7
Method: Test solution preparation: 8 mL of a commercially-available STANLEY universal hydroponic nutrient solution was taken and diluted with tap water to 3,200 mL (400-fold dilution) to produce a dilute nutrient solution. An appropriate amount of each of salt samples such as protoporphyrin disodium and potassium chlorhematin was weighed and prepared with the dilute nutrient solution into 0.010 ppm and 0.1 ppm sample test solutions, and 150 mL of each test solution was taken. 150 mL of the dilute nutrient solution was taken as a blank control. The test solutions and the control solution were placed in brown bottles, and the brown bottles were sealed with a black film. Mung bean seedlings with uniform growth and a seedling height of 7 cm to 8 cm were selected, and cut at 3 cm below a first true leaf node. 8 mung bean seedlings were inserted into each bottle (with roots removed) to make lower radicles soaked in a solution. Mung bean seedlings were treated at room temperature of 20° C. to 25° C. for 7 d in total, during which the solution was changed every 2 d. On day 2 to day 3 of the treatment, there was a significant difference. On day 7, the observation and determination were conducted. An average adventitious root number and an average total adventitious root length for each seedling were calculated, and results were shown in the following table: […]

[1] = Dilution and pH determination for sample solutions; type: physicochemical
Method: Method: 0.2500 g of a sample was accurately weighed and added to a 25 mL volumetric flask, dissolved with purified water, and diluted to a specified scale to prepare a 1.00% (10,000.0 ppm) initial solution. The initial solution was diluted with purified water in different ratios to prepare a series of solutions with a concentration of 1,000.0 ppm to 0.1 ppm. A pH value of each sample was determined three times.

cotton = experiment: Cotton yield in the verticillium wilt experiment; type: in vivo, cotton (Xinluzhong 66)
Method: (§1) Method: A total of five treatments were set, including: the sample in three concentrations; the positive control; and the blank control. An agent was sprayed once at each of a seedling stage (May 28) and a bud stage (June 28) of cotton, where a concentration was adjusted each time. Concentration changes of the sodium iron chlorophyllin and controls (first to fifth treatments) were as follows:
The harvesting was conducted on Nov. 15, 2020. […] The growth of cotton was first counted. Then, the harvesting was conducted, and a yield increase rate was calculated.

chlorophyllase = experiment: In vitro chlorophyllase-inhibiting activity test; type: biochemical, mung bean; details: substrate chlorophyll 120 ppm, sample 0.3 ppm to 30.0 ppm
Method: A chlorophyllase inhibition rate of a salt sample solution at each concentration was determined, and an IC50 value for a chlorophyllase inhibition activity of a salt sample was calculated.

[2] = test system: verticillium wilt in cotton; experiment: Spraying on cotton to control verticillium wilt; type: in vivo, cotton (Xinluzhong 66)
Text: as §1, with “follows: [table] […] A three-point survey method was adopted for each treatment, and 100 plants were selected at each point. A control effect was surveyed.” for “follows:”

rice = experiment: Spraying on flooded rice; type: in vivo, rice (Nanjing 9108); details: 10.0 ppm solution, 1.2 L/mu (12.0 mg/mu), aerial application after 10 d waterlogging; moisture content 16.5%
Method: Waterlogging: On Jul. 10, 2021, an area of 20 mu was flooded. The floodwater receded on July 20. During the 10 d of waterlogging, the plant was totally submerged for nearly 4 d and was mostly submerged for nearly 6 d. After the floodwater receded, rice plants were weak and had yellow and drooping leaves.
Method: A 10.0 ppm sodium iron chlorophyllin solution was sprayed on 10 mu of land through aerial application at an average amount of 1.2 L/mu (sodium iron chlorophyllin amount: 12.0 mg/mu). 10 mu of land was taken as a blank control (0 mg/mu).

[3] = Stability of sample solutions in the dark/under light; type: physicochemical; details: under light 30,000 lux, salts in water, acidic reference in 30% to 50% ethanol
Summary of the method: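 Salt in water, or acidic reference in 30–50% aqueous ethanol, at about 10 ppm; UV absorbance scanned 200–800 nm at 0, 1, 2, 3 h, stored at 25° C dark or under 30,000 lux light. Relative content = max-peak absorbance at each time divided by 0 h value (100%).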

[4] = First treatment (0.167 / 0.500 ppm)
[5] = Second treatment (0.500 / 0.188 ppm)
[6] = Third treatment (1.000 / 0.833 ppm)
[7] = First treatment (0.167 ppm seedling stage, 0.500 ppm bud stage), first survey (June 28)
[8] = First treatment (0.167 ppm seedling stage, 0.500 ppm bud stage), second survey (August 10)
[9] = Second treatment (0.500 ppm seedling stage, 0.188 ppm bud stage), first survey (June 28)
[10] = Second treatment (0.500 ppm seedling stage, 0.188 ppm bud stage), second survey (August 10)
[11] = Third treatment (1.000 ppm seedling stage, 0.833 ppm bud stage), first survey (June 28)
[12] = Third treatment (1.000 ppm seedling stage, 0.833 ppm bud stage), second survey (August 10)

**Q.** For sodium iron chlorophyllin, which Average single-fruit weight (tomato) is on record?
**A.** Its Average single-fruit weight is 51.3 g.

**Q.** And the Ear number/plant (tomato)?
**A.** The Ear number/plant was 6.9.

**Q.** And the Green fruit number/plant (tomato)?
**A.** Its Green fruit number/plant is 13.8 fruit.

**Q.** What about the Red fruit number/plant (tomato) of the same substance?
**A.** The Red fruit number/plant was 46.4 fruit.

**Q.** What about the Yield per mu (tomato) of the same substance?
**A.** Its Yield per mu is 6188.8 kg/mu.

**Q.** What about the “increase of red-to-green fruit ratio compared with the control” value (tomato) of the same substance?
**A.** The value was 5.91%.

**Q.** What about the red-to-green fruit ratio (tomato) of the same substance?
**A.** Its red-to-green fruit ratio is 3.36.

**Q.** And the Yield increase rate (tomato)?
**A.** Its Yield increase rate is 27.15%.

**Q.** And the Yield increase rate (tomato; listed as sodium iron chlorophyllin)?
**A.** Its Yield increase rate is “more than 27%”.

**Q.** What about the Adventitious root number (mung bean seedlings; 0.01 ppm) of the same substance?
**A.** Its Adventitious root number is 14.51 root/seedling.

**Q.** What about the “Total adventitious root length” value (mung bean seedlings; 0.01 ppm) of the same substance?
**A.** Its value is 20.06 cm/seedling.

**Q.** What about the Adventitious root number (mung bean seedlings; 0.1 ppm) of the same substance?
**A.** Its Adventitious root number is 13.67 root/seedling.

**Q.** And the “Total adventitious root length” value (mung bean seedlings; 0.1 ppm)?
**A.** Its value is 19.40 cm/seedling.

**Q.** What about the pH ([1]; 0.1 ppm in purified water) of the same substance?
**A.** Its pH is “(6.68)”.

**Q.** And the pH ([1]; 1.0 ppm in purified water)?
**A.** Its pH is “(6.95)”.

**Q.** What about the pH ([1]; 10.0 ppm in purified water) of the same substance?
**A.** The pH was “(7.14)”.

**Q.** And the pH ([1]; 20.0 ppm in purified water)?
**A.** Its pH is “(7.52)”.

**Q.** And the pH ([1]; 30.0 ppm in purified water)?
**A.** Its pH is “(7.63)”.

**Q.** What about the pH ([1]; 100.0 ppm in purified water) of the same substance?
**A.** Its pH is “(8.18)”.

**Q.** What about the pH ([1]; 1000.0 ppm in purified water) of the same substance?
**A.** Its pH is “(10.05)”.

**Q.** What about the pH ([1]; 10000.0 ppm in purified water) of the same substance?
**A.** Its pH is “(10.87)”.

**Q.** And the “Actual seed cotton yield per mu” value (cotton; [4])?
**A.** The value was 380.8 kg/mu.

**Q.** What about the “Average cotton boll weight” value (cotton; [4]) of the same substance?
**A.** The value was 5.2 g.

**Q.** What about the “Effective cotton boll number in 0.01 mu” value (cotton; [4]) of the same substance?
**A.** The value was 812.0.

**Q.** And the Yield increase rate (cotton; [4])?
**A.** Its Yield increase rate is 7.94%.

**Q.** And the “Actual seed cotton yield per mu” value (cotton; [5])?
**A.** Its value is 374.9 kg/mu.

**Q.** What about the “Average cotton boll weight” value (cotton; [5]) of the same substance?
**A.** The value was 5.3 g.

**Q.** What about the “Effective cotton boll number in 0.01 mu” value (cotton; [5]) of the same substance?
**A.** Its value is 786.1.

**Q.** What about the “Actual seed cotton yield per mu” value (cotton; [6]) of the same substance?
**A.** The value was 386.9 kg/mu.

**Q.** What about the “Average cotton boll weight” value (cotton; [6]) of the same substance?
**A.** The value was 5.3 g.

**Q.** And the “Effective cotton boll number in 0.01 mu” value (cotton; [6])?
**A.** Its value is 812.0.

**Q.** What about the Yield increase rate (cotton; [6]) of the same substance?
**A.** Its Yield increase rate is 9.66%.

**Q.** And the “IC50 for chlorophyllase inhibition activity” value (chlorophyllase)?
**A.** The value was 5.41 ppm.

**Q.** And the “Average diseased plant rate” value [2, 7]?
**A.** Its value is 2.2%.

**Q.** And the Control effect [2, 7]?
**A.** The Control effect was 35.29%.

**Q.** And the “Average diseased plant rate” value [2, 8]?
**A.** Its value is 5.6%.

**Q.** And the Control effect [2, 8]?
**A.** Its Control effect is 35.63%.

**Q.** And the “Average diseased plant rate” value [2, 9]?
**A.** Its value is 2.3%.

**Q.** And the Control effect [2, 9]?
**A.** The Control effect was 32.35%.

**Q.** What about the “Average diseased plant rate” value [2, 10] of the same substance?
**A.** The value was 4.8%.

**Q.** And the Control effect [2, 10]?
**A.** The Control effect was 44.83%.

**Q.** What about the “Average diseased plant rate” value [2, 11] of the same substance?
**A.** The value was 1.8%.

**Q.** And the Control effect [2, 11]?
**A.** Its Control effect is 47.06%.

**Q.** And the “Average diseased plant rate” value [2, 12]?
**A.** Its value is 4.1%.

**Q.** What about the Control effect [2, 12] of the same substance?
**A.** Its Control effect is 49.42%.

**Q.** What about the “yield of the treatment field” value (rice) of the same substance?
**A.** Its value is 720 kg/mu.

**Q.** What about the Relative content ([3]; 1 h) of the same substance?
**A.** The Relative content was 61.61%.

**Q.** What about the Relative content ([3]; 2 h) of the same substance?
**A.** Its Relative content is 54.63%.

**Q.** And the Relative content ([3]; 3 h)?
**A.** The Relative content was 53.29%.
